Experiments:
[1] = tested on: Donor 3 GMA T-cell lines (165-B5G, 165-C4G, 165-C5G, 165-E9G, 165-F5G, 165-F10G); experiment: MHC DR restriction testing (ATP proliferation with autologous and partially HLA-DR matched APC), Donor 3 GMA T-cell lines; assay type: cell-based, human; details: 20 μg/mL
Description: MHC DR restriction testing of cell lines was carried out by measuring the proliferation response of the cell lines as described above in the presence of an array of APC selected based on the known HLA-DR loci of the original PBMC donor for the cell line tested, including autologous APC (B-LCL). The donors used are described in Table 2.
To define the MHC molecule used to present antigen to GA specific T cell lines, GA specific responses were measured in the presence of autologous APC and in the presence of APC matching one of the T cell donor's HLA-DR alleles. Therefore at least 3 APC were used in each experiment: autologous APC, APC matching DR allele 1 but not allele 2 and a third APC matching allele 2 but not allele 1. In some experiments a fourth APC B-LCL was used. A no antigen negative control was used. APC were inactivated by incubation with 50 ug/mL mitomycin C. Following inactivation, cells were washed three times to remove mitomycin C and suspended in X-VIVO 15 medium at 1×10^6 cells per mL. GA was added to the cell suspension to a final concentration of 20-60 μg/mL. The cells were incubated with antigen for 1 hour at 37° C. to allow antigen uptake and binding. The cell suspension was then centrifuged to pellet the cells and the cell pellet was washed once with medium. APC were adjusted to 2×10^5 cells per mL in X-VIVO 15 medium and added to opaque 96-well plates at 100 μL per well. T-cell suspensions of 2-4×10^5 cells per mL (unless otherwise specified) were added to the 96-well plates at 100 μL per well and the cultures incubated 4 days before measuring cell numbers using CellTiter Glo® (to evaluate proliferation).
Alternatively, APC were not pulsed. Instead, each well contained 10 ug/mL antigen, 50 μl APC and 100 μL of T cells.
After incubating for 4 days at 37° C. (5% CO2), 100 μL were removed from each well, combined with 100 μL CellTiterGlo reagent, and luminescence was measured using a Packard Fusion. Results were expressed in relative light units (RLU).
As described in the Methods, T-cell lines were tested for MHC restriction by measuring proliferation following incubation with APC. Mitomycin-treated autologous APC, and test APC, e.g., from donors having at least one HLA-DR match with the original PBMC donor were employed. The values in the data tables below are in RLU.
(§1) Donor 3 T-cell line 165-B5G was assayed for proliferation, using mitomycin-treated APC from Donors 3, 5, and 6 that had been incubated in the presence or the absence of 20 μg/mL GMA. T-cell line 165-B5G had been restimulated six times (not including the initial stimulation) with antigen before the MHC restriction assay was carried out. The data, shown in Table 62 and FIG. 9A, indicate that 165-B5G is restricted by HLA-DRβ1*11.
as §1, with “165-C4G” for “165-B5G”, “7” for “6”, “five” for “six”, “63” for “62”, “9B,” for “9A,”
as §1, with “165-05G” for “165-B5G”, “four” for “six”, “64” for “62”, “10A,” for “9A,”, “HLA-DRβ1*1501.” for “HLA-DRβ1*11.”
as §1, with “165-E9G” for “165-B5G”, “four” for “six”, “The data, shown in Table 62 and FIG. 9A, indicate that 165-B5G is restricted by HLA-DRβ1*11.” left out

[2] = tested on: Donor 6 GMA-Reactive T-Cell Lines; experiment: ATP proliferation assay, Donor 6 GMA-reactive T-cell lines; assay type: cell-based, human; details: Day 35, GMA Lot 001 and COP 10 μg/mL

glatiramer acetate [GMA]
Proliferation with antigen-incubated APC ([1]; T-cell line 165-B5G, B-LCL Donor 3 (Autologous) DRβ1*1501/DRβ1*11): 4776 RLU | Proliferation with antigen-incubated APC ([1]; T-cell line 165-B5G, B-LCL Donor 5 DRβ1*01/DRβ1*11): 5450 RLU | Proliferation with antigen-incubated APC ([1]; T-cell line 165-B5G, B-LCL Donor 6 DRβ1*1501/DRβ1*13): 2360 RLU | Proliferation with antigen-incubated APC ([1]; T-cell line 165-C4G, B-LCL Donor 3 (Autologous) DRβ1*1501/DRβ1*11): 48711 RLU | Proliferation with antigen-incubated APC ([1]; T-cell line 165-C4G, B-LCL Donor 5 DRβ1*01/DRβ1*11): 41833 RLU | Proliferation with antigen-incubated APC ([1]; T-cell line 165-C4G, B-LCL Donor 7 DRβ1*1501/DRβ1*03): 4870 RLU | Proliferation with antigen-incubated APC ([1]; T-cell line 165-C5G, B-LCL Donor 3 (Autologous) DRβ1*1501/DRβ1*11): 16461 RLU | Proliferation with antigen-incubated APC ([1]; T-cell line 165-C5G, B-LCL Donor 5 DRβ1*01/DRβ1*11): 9825 RLU | Proliferation with antigen-incubated APC ([1]; T-cell line 165-C5G, B-LCL Donor 6 DRβ1*1501/DRβ1*13): 31717 RLU | Proliferation with antigen-incubated APC ([1]; T-cell line 165-E9G, B-LCL Donor 3 (Autologous) DRβ1*1501/DRβ1*11): 5452 RLU | Proliferation with antigen-incubated APC ([1]; T-cell line 165-E9G, B-LCL Donor 5 DRβ1*01/DRβ1*11): 9514 RLU | Proliferation with antigen-incubated APC ([1]; T-cell line 165-E9G, B-LCL Donor 6 DRβ1*1501/DRβ1*13): 1442 RLU | Proliferation with antigen-incubated APC ([1]; T-cell line 165-F5G, B-LCL Donor 3 (Autologous) DRβ1*1501/DRβ1*11): 2862 RLU | Proliferation with antigen-incubated APC ([1]; T-cell line 165-F5G, B-LCL Donor 5 DRβ1*01/DRβ1*11): 3971 RLU | Proliferation with antigen-incubated APC ([1]; T-cell line 165-F5G, B-LCL Donor 6 DRβ1*1501/DRβ1*13): 1424 RLU | Proliferation with antigen-incubated APC ([1]; T-cell line 165-F10G, B-LCL Donor 3 (Autologous) DRβ1*1501/DRβ1*11): 120946 RLU | Proliferation with antigen-incubated APC ([1]; T-cell line 165-F10G, B-LCL Donor 5 DRβ1*01/DRβ1*11): 6221 RLU | Proliferation with antigen-incubated APC ([1]; T-cell line 165-F10G, B-LCL Donor 7 DRβ1*1501/DRβ1*03): 151115 RLU

glatiramer acetate [COP]
ATP proliferation assay ([2]; Cell line 224-B6-001): 78357 RLU | ATP proliferation assay ([2]; Cell line 224-B7-001): 20586 RLU | ATP proliferation assay ([2]; Cell line 224-B11-001): 27861 RLU | ATP proliferation assay ([2]; Cell line 224-C4-001): 52771 RLU | ATP proliferation assay ([2]; Cell line 224-C11-001): 87933 RLU | ATP proliferation assay ([2]; Cell line 224-D2-001): 26027 RLU | ATP proliferation assay ([2]; Cell line 224-D6-001): 68767 RLU | ATP proliferation assay ([2]; Cell line 224-E2-001): 233094 RLU | ATP proliferation assay ([2]; Cell line 224-E7-001): 137556 RLU | ATP proliferation assay ([2]; Cell line 224-F4-001): 114667 RLU | ATP proliferation assay ([2]; Cell line 224-G2-001): 227257 RLU | ATP proliferation assay ([2]; Cell line 224-G10-001): 229933 RLU | ATP proliferation assay ([2]; Cell line 224-G11-001): 91466 RLU
